The compounds below were run on JFH-1 HCV. Conditions: relative to mock-treated HCV infected control; doses in μM.
From the text: In vitro assay for anti-HCV efficacy. HCV studies typically involve infected patients and chimpanzees. However, recently, a robust HCV infection system was developed with cells derived from the Huh-7 human hepatoma cell line. It is based on the unique JFH-1 HCV consensus cDNA derived from an HCV patient. Using reverse genetics, the infectious virus can be rescued from this HCV clone. The recovered viable JFH virus can be passaged serially in Huh-7 cells. For this reason, this system is amenable for evaluating the activity of test compound for their anti-HCV efficacy.
Briefly, 6×10^3 Huh7-1 cells are incubated overnight in each well of collagen-coated BioCoat 96-well plates (BD Biosciences, Bedford, Mass.) in 0.2 ml 10% medium composed of Dulbecco's modified Eagle's medium supplemented with 10% fetal bovine serum. Subsequently, at 2 day intervals, the cultures are replenished with fresh 0.2 ml 10% medium. After the cultures become confluent, they continue to be replenished at 2 day intervals with fresh 0.2 ml 10% medium that also includes 1% dimethyl sulfoxide (DMSO). After 20 days of these replenishments, the Huh7-1 cultures are incubated with fresh 1% medium (same as 10% medium except that the serum level is 1%) containing HCV at a multiplicity of infection (MOI) of 0.05 focus forming units (ffu)/cell. The HCV (JFH-lwt Huh7) stock titer is 1.5×10^5 ffu/mL. The next day (day 1 post-infection) and 2 days later (day 3 post-infection) the media are replenished with fresh 1% medium containing the test compounds dissolved in DMSO. On the 5th day of treatment with the compounds, cell lysates are collected for RNA isolation and Real Time-quantitative Reverse Transcription Polymerase Chain Reaction (RT-qPCR) and culture media are collected for cytotoxicity analysis.
Total RNA is isolated from cells by the guanidine thiocyanate method using standard protocols. One μg RNA is used for cDNA synthesis using TaqMan reverse transcription reagents (Applied Biosystems, Foster City, Calif.) followed by real-time PCR using an Applied Biosystems 7300 real-time thermocycler. Thermal cycling consists of initial denaturation of 10 min at 95° C. followed by 40 cycles of denaturation (15 s at 95° C.) and annealing/extension (1 m at 60° C.). HCV and human glyceraldehyde-3-phosphate dehydrogenase (GAPDH) RNA levels are determined relative to a standard curve of serial dilutions of plasmid containing JFH-1 HCV or GAPDH cDNA. The PCR primers used to detect GAPDH and HCV are: GAPDH (NMX002046) 5′-[…]-3′(SEQ ID NO: 16) (sense) and 5′-[…]-3′(SEQ ID NO: 17) (anti-sense) JFH-1 HCV (AB047639) 5′-[…]-3′(SEQ ID NO: 18) (sense) and 5′-[…]-3′(SEQ ID NO: 19) (anti-sense).

Compound	intracellular HCV RNA levels (FIGS. 1A, 1B, 1C)
COc1cccc(-c2ccccc2NC(=O)C2CCN(Cc3cccc4cccnc34)CC2)c1 [Example 22]	dose dependent decrease in HCV RNA levels
COc1cccc(-c2ccccc2NC(=O)C2CCN(Cc3cc(C)c(O)c(C)c3)CC2)c1 [Example 24]	dose dependent decrease in HCV RNA levels
O=C(Nc1ccc(Oc2ccccc2F)cc1)C1CCN(Cc2cccc3c2OCO3)CC1 [Example 28]	dose dependent decrease in HCV RNA levels

Same assay, conditions: viral titer at 5 μM or 15 μM compared to untreated control

Compound	HCV Antiviral Activity
COc1cc(CN2CCC(C(=O)Nc3ccc(-c4cccc(C)c4)cc3)CC2)ccc1O [Example 17]	+ (“+” corresponds to ≦60% viral titer at 15 μM)
COc1ccc(CN2CCC(C(=O)Nc3ccc(Oc4ccccc4F)cc3)CC2)c(O)c1 [Example 21]	+++ (“+++” corresponds to ≦30% viral titer at 5 μM)
COc1cccc(-c2ccccc2NC(=O)C2CCN(Cc3cccc4cccnc34)CC2)c1 [Example 22]	+++ (“+++” corresponds to ≦30% viral titer at 5 μM)
COc1ccccc1CN1CCC(C(=O)Nc2ccc(-c3nc4ccccc4[nH]3)cc2)CC1 [Example 23]	+++ (“+++” corresponds to ≦30% viral titer at 5 μM)
COc1cccc(-c2ccccc2NC(=O)C2CCN(Cc3cc(C)c(O)c(C)c3)CC2)c1 [Example 24]	+++ (“+++” corresponds to ≦30% viral titer at 5 μM)
COc1cccc(-c2ccccc2NC(=O)C2CCN(Cc3ccccc3OC)CC2)c1 [Example 25]	++ (“++” corresponds to ≦60% viral titer at 5 μM)
O=C(Nc1cccc(-c2cccc(F)c2)c1)C1CCN(Cc2ccc(O)cc2)CC1 [Example 26]	++ (“++” corresponds to ≦60% viral titer at 5 μM)
CCCCc1nc(CN2CCC(C(=O)Nc3cccc(-c4cccc(F)c4)c3)CC2)c[nH]1 [Example 27]	++ (“++” corresponds to ≦60% viral titer at 5 μM)
O=C(Nc1ccc(Oc2ccccc2F)cc1)C1CCN(Cc2cccc3c2OCO3)CC1 [Example 28]	++ (“++” corresponds to ≦60% viral titer at 5 μM)
O=C(Nc1cccc(-c2cccc(F)c2)c1)C1CCN(Cc2cccc(O)c2)CC1 [Example 29]	+ (“+” corresponds to ≦60% viral titer at 15 μM)
COc1cccc(O)c1CN1CCC(C(=O)Nc2cccc(-c3cccc(F)c3)c2)CC1 [Example 30]	+ (“+” corresponds to ≦60% viral titer at 15 μM)
O=C(Nc1cccc(-c2cccc(Cl)c2)c1)C1CCN(Cc2ccc(O)cc2)CC1 [Example 31]	+ (“+” corresponds to ≦60% viral titer at 15 μM)
COc1cccc(-c2ccccc2NC(=O)C2CCN(Cc3ccc(OC)c(C)c3)CC2)c1 [Example 32]	+ (“+” corresponds to ≦60% viral titer at 15 μM)
COc1cccc(CN2CCC(C(=O)Nc3ccccc3-c3cccc(OC)c3)CC2)c1 [Example 33]	+ (“+” corresponds to ≦60% viral titer at 15 μM)
COc1cccc(-c2ccccc2NC(=O)C2CCN(Cc3ccc(F)cc3OC)CC2)c1 [Example 34]	+ (“+” corresponds to ≦60% viral titer at 15 μM)
O=C(Nc1cccc(-c2cscn2)c1)C1CCN(Cc2cccc(-c3ccco3)c2)CC1 [Example 35]	+ (“+” corresponds to ≦60% viral titer at 15 μM)
COc1cccc(-c2ccccc2NC(=O)C2CCN(CCC(C)c3ccccc3)CC2)c1 (stereo not shown) [Example 36]	+ (“+” corresponds to ≦60% viral titer at 15 μM)
CC(C)n1cc(CN2CCC(C(=O)Nc3cccc(-c4cc5ccccc5[nH]4)c3)CC2)cn1 [Example 38]	+ (“+” corresponds to ≦60% viral titer at 15 μM)
COc1cccc(-c2ccccc2NC(=O)C2CCN(CC(C)(C)C)CC2)c1 [Example 39]	+ (“+” corresponds to ≦60% viral titer at 15 μM)
O=C(Nc1cccc(-c2ccco2)c1)C1CCN(Cc2cccc3cccnc23)CC1 [Example 40]	+ (“+” corresponds to ≦60% viral titer at 15 μM)
Cc1nnc(-c2cccc(NC(=O)C3CCN(C(=O)c4ccco4)CC3)c2)s1 [Example 41]	+ (“+” corresponds to ≦60% viral titer at 15 μM)
COc1cc(CN2CCC(C(=O)Nc3cccc(-c4cccc(Cl)c4)c3)CC2)ccc1O [Example 42]	+ (“+” corresponds to ≦60% viral titer at 15 μM)
O=C(Nc1cccc(-c2ccn[nH]2)c1)C1CCN(Cc2cccc3ccccc23)CC1 [Example 43]	− (“−” corresponds to >60% viral titer at 15 μM (highest concentration tested))

Compound	HCV Antiviral Activity
Cc1ccc(CN2CCC(C(=O)Nc3cccc(-c4cc5ccccc5[nH]4)c3)CC2)o1 [Example 45]	− (“−” corresponds to >60% viral titer at 15 μM (highest concentration tested))
CSCCCN1CCC(C(=O)Nc2cccc(-c3cc4ccccc4[nH]3)c2)CC1 [Example 46]	− (“−” corresponds to >60% viral titer at 15 μM (highest concentration tested))
O=C(Nc1ccc(-c2nc3ccccc3[nH]2)cc1)C1CCN(Cc2cc3ccccc3[nH]2)CC1 [Example 47]	− (“−” corresponds to >60% viral titer at 15 μM (highest concentration tested))
CCOc1ccc(CN2CCC(C(=O)Nc3ccccc3-c3cccc(OC)c3)CC2)cc1 [Example 48]	− (“−” corresponds to >60% viral titer at 15 μM (highest concentration tested))
O=C(Nc1cccc(-c2ccco2)c1)C1CCN(Cc2nc3ccc(F)cc3[nH]2)CC1 [Example 49]	− (“−” corresponds to >60% viral titer at 15 μM (highest concentration tested))
O=C(Nc1cccc(-c2cccc(Cl)c2)c1)C1CCN(Cc2cccc(O)c2)CC1 [Example 50]	− (“−” corresponds to >60% viral titer at 15 μM (highest concentration tested))
O=C(Nc1cccc(-c2cscn2)c1)C1CCN(C/C=C/c2ccc(F)cc2)CC1 [Example 52]	− (“−” corresponds to >60% viral titer at 15 μM (highest concentration tested))
O=C(Nc1cccc(-c2ccco2)c1)C1CCN(C(=O)CCc2ccco2)CC1 [Example 53]	− (“−” corresponds to >60% viral titer at 15 μM (highest concentration tested))
O=C(Nc1cccc(-c2ccco2)c1)C1CCN(C(=O)c2n[nH]c3c2CCC3)CC1 [Example 54]	− (“−” corresponds to >60% viral titer at 15 μM (highest concentration tested))
COc1ccc(/C=C/CN2CCC(C(=O)Nc3cccc(-c4ccco4)c3)CC2)cc1 [Example 55]	− (“−” corresponds to >60% viral titer at 15 μM (highest concentration tested))
O=C(Nc1cccc(-c2cccc(F)c2)c1)C1CCN(Cc2cccc3c2OCO3)CC1 [Example 56]	− (“−” corresponds to >60% viral titer at 15 μM (highest concentration tested))
COc1cccc(CN2CCC(C(=O)Nc3ccc(Oc4ccccc4F)cc3)CC2)c1O [Example 61]	++ (“++” corresponds to ≦60% viral titer at 5 μM)
COc1cccc(-c2ccccc2NC(=O)C2CCN(Cc3cccc(OC)c3O)CC2)c1 [Example 62]	++ (“++” corresponds to ≦60% viral titer at 5 μM)
COc1cccc(CN2CCC(C(=O)Nc3cccc(-c4cccc(Cl)c4)c3)CC2)c1O [Example 63]	++ (“++” corresponds to ≦60% viral titer at 5 μM)
COc1ccccc1/C=C/CN1CCC(C(=O)Nc2ccc(-n3nc(C)cc3C)cc2)CC1 [Example 66]	+ (“+” corresponds to ≦60% viral titer at 15 μM)
CCc1nc(CN2CCC(C(=O)Nc3cccc(-c4cccc(F)c4)c3)CC2)c(C)[nH]1 [Example 68]	+ (“+” corresponds to ≦60% viral titer at 15 μM)
COc1cccc(-c2cccc(NC(=O)C3CCN(CC=C(C)C)CC3)c2)c1 [Example 69]	++ (“++” corresponds to ≦60% viral titer at 5 μM)
COc1cccc(CN2CCC(C(=O)Nc3ccc(Oc4ccccc4F)cc3)CC2)c1 [Example 70]	+ (“+” corresponds to ≦60% viral titer at 15 μM)
COc1cccc(-c2ccccc2NC(=O)C2CCN(Cc3cccc4ccccc34)CC2)c1 [Example 71]	+ (“+” corresponds to ≦60% viral titer at 15 μM)
C=CCn1cc(CN2CCC(C(=O)Nc3cccc(-c4cccc(Cl)c4)c3)CC2)c(C)n1 [Example 72]	+ (“+” corresponds to ≦60% viral titer at 15 μM)
CCCn1ncc(CN2CCC(C(=O)Nc3ccc(Oc4ccccc4F)cc3)CC2)c1C [Example 73]	+ (“+” corresponds to ≦60% viral titer at 15 μM)
CCN1CCC(N2CCC(C(=O)Nc3ccc(Oc4ccccc4F)cc3)CC2)CC1 [Example 75]	+++ (“+++” corresponds to ≦30% viral titer at 5 μM)
Cc1nn(C(C)C)c(C)c1CN1CCC(C(=O)Nc2cccc(-c3cccc(F)c3)c2)CC1 [Example 76]	++ (“++” corresponds to ≦60% viral titer at 5 μM)

Reference: US9511070B2, “Heterocyclyl carboxamides for treating viral diseases” (NOVADRUG, LLC, priority 2012, dated 2016)
